Source: PMC6268061, “Investigation of the Biological Properties of (Hetero)Aromatic Thiosemicarbazones” (Molecules, 2012)
In brackets after ≈: the same amount, converted by molar mass. Where two headings read alike, the source gives them in different places.

Assays:
[1] = tested on: Absidia corymbifera 272; assay: In vitro antifungal susceptibility, broth microdilution; assay type: cell-based; conditions: read-out: MIC (IC50) AC
[2] = tested on: Aspergillus fumigatus 231; assay: as above; assay type: cell-based; conditions: read-out: MIC (IC50) AF
[3] = tested on: Candida albicans ATCC 44859; assay: as above; assay type: cell-based; conditions: read-out: MIC (IC80) CA
[4] = tested on: Trichophyton mentagrophytes 445; assay: as above; assay type: cell-based; conditions: read-out: MIC (IC50) TM
[5] = tested on: Candida glabrata 20/I; assay: as above; assay type: cell-based; conditions: Nakaseomyces glabratus, read-out: MIC (IC80) CG
[6] = tested on: HCT-116 human colon cancer cells (p53 wild type); assay: In vitro antiproliferative activity, MTS assay; assay type: cell-based; conditions: HCT-116, 72 h incubation, MTS, read-out: HCT-116 IC50
Experimental: The antiproliferative activity of all of the compounds was examined against the human colon cancer (HCT-116) cell line using an MTS assay. The HCT-116 p53 wild type cell line was chosen on the basis of our former experience and some results on the activity of quinoline-based thiosemicarbazones that was published recently. Namely, compounds 4a–l have been tested previously for their wide-ranging anticancer activity. The antiproliferative activity of the compounds evaluated was assessed using Doxorubicin as a reference compound. In general, quinoline-based thiosemicarbazones 4 seem to have a much better anticancer activity than halogenophenyl compounds 3. Thus, the quinoline nucleus can be defined as being crucial for antiproliferative activity. A more detailed analysis of the anticancer activity of quinoline-based thiosemicarbazone is available. […] Nevertheless, some more general conclusions can be drawn from the gathered data. […] The free amino group or substitution pattern with small substituents such as methyl or ethyl are favorable for activity. According to our former results the chelating ability of the compounds may be one of the prerequisites of the antiproliferative activity. In this study we have measured the UV-VIS spectra of the compounds in presence of various concentration of Fe^3+ cations to observe its chelating potency (supplementary material). […] However as 4j give also two points at 330 and 385 nm, iron chelating ability should be regarded only as one of the factor influencing the biological activity.
The human colon cancer cell line HCT116 with the wild type p53 gene (p53^+/+) were obtained from Maria Sklodowska-Curie Memorial Cancer Center in Gliwice, Poland. Briefly, the cells were seeded in 96-well plates (3 × 10^3 cells/well) in cellular proliferation assays 24 h before the addition of the chelators. The assay was performed following a 72 h incubation with varying concentrations of the agents. Each compound was tested in triplicate in a single experiment with each experiment being repeated 3 times. After 72 h incubation with the compounds being investigated, 20 µL of MTS solution was added to each well (100 µL) and incubated for 1 h at 37 °C. The optical densities of the samples were analyzed at 490 nm. Results were expressed as a percentage of the control. The inhibitory concentration (IC50) was defined as the compound concentration necessary to reduce the absorbance to 50% of the untreated control.

[7] = tested on: Trichosporon beigelii 1188; assay: In vitro antifungal susceptibility, broth microdilution; assay type: cell-based; conditions: read-out: MIC (IC80) TB
Summary of the method: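 Twofold dilutions (500 to 0.975 μmol/L final) in RPMI 1640 with MOPS, pH 7.0, per CLSI broth microdilution. MIC taken as IC80 for yeasts (M27-A2) or IC50 for moulds (M38-A) versus drug-free control, read after 24 and 48 h static incubation at 35 °C.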

[8] = tested on: Candida tropicalis 156; assay: as above; assay type: cell-based; conditions: read-out: MIC (IC80) CT
[9] = tested on: photosynthetic electron transport (PET) in spinach chloroplasts; assay: Inhibition of photosynthetic electron transport (PET) in spinach chloroplasts; assay type: biochemical, Spinacia oleracea L.; conditions: DCPIP photoreduction
Summary of the method: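 PET in spinach chloroplasts was followed spectrophotometrically as DCPIP photoreduction in pH 7.2 phosphate buffer with sucrose, MgCl2 and NaCl, at 30 mg/L chlorophyll, under halogen-lamp irradiation at 22 °C. Compounds were added in DMSO. IC50 is the molar concentration halving the rate relative to untreated control.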

[10] = tested on: Candida krusei ATCC 6258; assay: In vitro antifungal susceptibility, broth microdilution; assay type: cell-based; conditions: Pichia kudriavzevii, read-out: MIC (IC80) CK
[11] = Lichtheimia corymbifera, 272, 24 h
[12] = Lichtheimia corymbifera, 272, 48 h
[13] = Aspergillus fumigatus, 231, 24 h
[14] = Aspergillus fumigatus, 231, 48 h
[15] = Trichophyton mentagrophytes, 445, 72 h
[16] = Trichophyton mentagrophytes, 445, 120 h
[17] = Trichosporon beigelii, 1188, 24 h
[18] = Trichosporon beigelii, 1188, 48 h

Structure (SMILES)	IC50 [1, 11] [µM]	IC50 [1, 12] [µM]	IC50 [2, 13] [µM]	IC50 [2, 14] [µM]	MIC ([3]; ATCC44859, 24 h) [µM]	MIC ([3]; ATCC44859, 48 h) [µM]	IC50 [4, 15] [µM]	IC50 [4, 16] [µM]	MIC ([5]; 24 h) [µM]	MIC ([5]; 48 h) [µM]	IC50 [6] [µM]	MIC [7, 17] [µM]	MIC [7, 18] [µM]	MIC ([8]; Candida tropicalis, 156, 24 h) [µM]	MIC ([8]; Candida tropicalis, 156, 48 h) [µM]	IC50 [9] [µM]	MIC ([10]; ATCC6258, 24 h) [µM]	MIC ([10]; ATCC6258, 48 h) [µM]
CN(C)C(=S)N/N=C/c1ccc(Cl)c(Cl)c1 [Compound 3h, (E)-2-(3,4-Dichlorobenzylidene)-N,N-dimethylhydrazinecarbothioamide]	> 500	> 500	> 500	> 500	15.6 (≈ 4.31 µg/mL)	31.2 (≈ 8.63 µg/mL)	31.2	62.5	500 (≈ 138 µg/mL)	500 (≈ 138 µg/mL)	47 ± 1.3	125 (≈ 34.5 µg/mL)	500 (≈ 138 µg/mL)	500 (≈ 138 µg/mL)	500 (≈ 138 µg/mL)	329	500 (≈ 138 µg/mL)	500 (≈ 138 µg/mL)
NC(=S)N/N=C/c1ccc(Br)cc1 [Compound 3k, (E)-2-(4-Bromobenzylidene)hydrazinecarbothioamide]	> 500	> 500	> 500	> 500	500 (≈ 129 µg/mL)	500 (≈ 129 µg/mL)	> 500	> 500	> 500	> 500	> 60	500 (≈ 129 µg/mL)	500 (≈ 129 µg/mL)	> 500	> 500	586	> 500	> 500
CN(C)C(=S)N/N=C/c1ccc(Br)cc1 [Compound 3m, (E)-2-(4-bromobenzylidene)-N,N-dimethylhydrazinecarbothioamide]	> 500	> 500	> 500	> 500	62.5 (≈ 17.9 µg/mL)	250 (≈ 71.5 µg/mL)	62.5	62.5	> 500	> 500	47.5 ± 2.4	15.6 (≈ 4.47 µg/mL)	62.5 (≈ 17.9 µg/mL)	> 500	> 500	595	> 500	> 500
